Assay results as given in patent US20260166128A1, “HUMAN AMYLIN ANALOG, AND DERIVATIVE THEREOF AND USE THEREOF” (priority 2022, published 2026).
Numbered stars: 1 amine (or outer) side, 2 acyl side, 3 side chain; on linkers, the order of the positions; unused ones are H or OH. Bridge positions count the residues as written; N and C are the ends. Square brackets hold non-standard residues; d marks the D form. Side chains are listed from the residue outwards. Peptide text beside a SMILES is read from it. * marks the point of attachment. C20 diacid = O=C(O)CCCCCCCCCCCCCCCCCCC(=O)*; γGlu = O=C(O)[C@H](CCC(=O)[*:2])N[*:1]; Hyp = O=C(O)[C@@H]1C[C@@H](O)CN1; hArg = N=C(N)NCCCC[C@H](N)C(=O)O; AEEA = NCCOCCOCC(=O)O

Target: T1, human amylin receptor (Homo sapiens, UniProt O60896+P30988)
T1 construct: host or cells: CHO-K1/Ga15/AMY3 cells, further stably transfected with a CRE-luciferase plasmid
T1 sequence (P30988 25-474): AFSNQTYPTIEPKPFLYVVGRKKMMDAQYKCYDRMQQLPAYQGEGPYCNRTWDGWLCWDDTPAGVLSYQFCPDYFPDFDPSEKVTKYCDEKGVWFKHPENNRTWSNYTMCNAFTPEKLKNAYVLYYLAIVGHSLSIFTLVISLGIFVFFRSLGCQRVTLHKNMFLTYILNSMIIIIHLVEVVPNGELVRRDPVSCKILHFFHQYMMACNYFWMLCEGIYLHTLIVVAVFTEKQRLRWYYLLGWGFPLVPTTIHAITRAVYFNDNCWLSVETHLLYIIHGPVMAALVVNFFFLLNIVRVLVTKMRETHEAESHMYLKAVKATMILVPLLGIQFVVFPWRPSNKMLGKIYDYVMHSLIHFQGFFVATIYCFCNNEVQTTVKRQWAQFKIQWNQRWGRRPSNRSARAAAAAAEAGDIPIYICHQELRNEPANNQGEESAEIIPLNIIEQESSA
T1 sequence (O60896 24-148 partner): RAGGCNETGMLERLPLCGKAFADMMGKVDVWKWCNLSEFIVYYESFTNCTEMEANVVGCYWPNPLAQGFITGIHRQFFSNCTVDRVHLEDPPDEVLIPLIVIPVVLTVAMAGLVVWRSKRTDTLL
Assay: Luciferase assay of amylin derivatives in amylin receptor/CRE-luc CHO cell line
Type: cell-based
Conditions: CHO-K1/Ga15/AMY3 CRE-luc cells, 24 hours incubation, F12 medium containing 10% FBS; read-out: EC50
Procedure: The experiment was intended to detect the activity or efficacy of the amylin derivatives on a human amylin receptor in vitro by luciferase assay.
50 μL of growth medium (F12 medium containing 10% FBS) was added into each well of a white 96-well plate, and the stably transfected amylin/CRE-lue CHO cells were inoculated into the white 96-well plate at a density of about 20,000 cells/well for activity determination.

Compound | EC50
CC[C@H](C)[C@H](NC(=O)[C@@H]1CCCN1C(=O)[C@H](CCCCNC(=O)CC[C@H](NC(=O)CCCCCCCCCCCCCCCCCCC(=O)O)C(=O)O)NC(=O)[C@H](CC(C)C)NC(=O)[C@H](CC(N)=O)NC(=O)[C@H](CC(N)=O)NC(=O)[C@H](CO)NC(=O)[C@H](CO)NC(=O)[C@H](Cc1c[nH]cn1)NC(=O)[C@H](CCCNC(=N)N)NC(=O)[C@H](CC(C)C)NC(=O)[C@H](Cc1ccccc1)NC(=O)[C@H](CC(=O)O)NC(=O)[C@H](C)NC(=O)[C@H](CC(C)C)NC(=O)[C@H](CCCNC(=N)N)NC(=O)[C@H](CCC(N)=O)NC(=O)[C@@H](NC(=O)[C@H](C)NC(=O)[C@@H]1CSSC[C@H](NC(=O)[C@@H](N)CCCCNC(=N)N)C(=O)N[C@@H](CC(N)=O)C(=O)N[C@@H]([C@@H](C)O)C(=O)N[C@@H](C)C(=O)N[C@@H]([C@@H](C)O)C(=O)N1)[C@@H](C)O)C(=O)N[C@@H](CC(C)C)C(=O)N1CCC[C@H]1C(=O)N1CCC[C@H]1C(=O)N[C@H](C(=O)N[C@@H](CC(N)=O)C(=O)N[C@H](C(=O)NCC(=O)N[C@@H](CO)C(=O)N[C@@H](CC(N)=O)C(=O)N[C@H](C(=O)N1C[C@H](O)C[C@H]1C(N)=O)[C@@H](C)O)C(C)C)[C@@H](C)O [PD077] (H-[hArg]CNTATCATQRLADFLRHSSNNLK([γGlu-C20 diacid])PILPPTNVGSNT[Hyp]-NH2; disulfide 2-7) | 0.034 nM
CC[C@H](C)[C@H](NC(=O)[C@@H]1CCCN1C(=O)[C@H](CCCCNC(=O)CC[C@H](NC(=O)CCCCCCCCCCCCCCCCCCC(=O)O)C(=O)O)NC(=O)[C@H](CC(C)C)NC(=O)[C@H](CC(N)=O)NC(=O)[C@H](CC(N)=O)NC(=O)[C@H](CO)NC(=O)[C@H](CO)NC(=O)[C@H](Cc1c[nH]cn1)NC(=O)[C@H](CCCNC(=N)N)NC(=O)[C@H](CC(C)C)NC(=O)[C@H](Cc1ccccc1)NC(=O)[C@H](CC(=O)O)NC(=O)[C@H](C)NC(=O)[C@H](CC(C)C)NC(=O)[C@H](CCCNC(=N)N)NC(=O)[C@H](CCC(N)=O)NC(=O)[C@@H](NC(=O)[C@H](C)NC(=O)[C@@H]1CSSC[C@H](NC(=O)[C@@H](N)Cc2c[nH]cn2)C(=O)N[C@@H](CC(N)=O)C(=O)N[C@@H]([C@@H](C)O)C(=O)N[C@@H](C)C(=O)N[C@@H]([C@@H](C)O)C(=O)N1)[C@@H](C)O)C(=O)N[C@@H](CC(C)C)C(=O)N1CCC[C@H]1C(=O)N1CCC[C@H]1C(=O)N[C@H](C(=O)N[C@@H](CC(N)=O)C(=O)N[C@H](C(=O)NCC(=O)N[C@@H](CO)C(=O)N[C@@H](CC(N)=O)C(=O)N[C@H](C(=O)N1C[C@H](O)C[C@H]1C(N)=O)[C@@H](C)O)C(C)C)[C@@H](C)O [PD078] (H-HCNTATCATQRLADFLRHSSNNLK([γGlu-C20 diacid])PILPPTNVGSNT[Hyp]-NH2; disulfide 2-7) | 0.035 nM
CC[C@H](C)[C@H](NC(=O)[C@@H]1CCCN1C(=O)[C@H](CCCCNC(=O)COCCOCCNC(=O)COCCOCCNC(=O)CC[C@H](NC(=O)CCCCCCCCCCCCCCCCCCC(=O)O)C(=O)O)NC(=O)[C@H](CC(C)C)NC(=O)[C@H](CC(N)=O)NC(=O)[C@H](CC(N)=O)NC(=O)[C@H](CO)NC(=O)[C@H](CO)NC(=O)[C@H](Cc1c[nH]cn1)NC(=O)[C@H](CCCNC(=N)N)NC(=O)[C@H](CC(C)C)NC(=O)[C@H](Cc1ccccc1)NC(=O)[C@H](CC(=O)O)NC(=O)[C@H](C)NC(=O)[C@H](CC(C)C)NC(=O)[C@H](CCCNC(=N)N)NC(=O)[C@H](CCC(N)=O)NC(=O)[C@@H](NC(=O)[C@H](C)NC(=O)[C@@H]1CSSC[C@H](NC(=O)[C@@H](N)CCCNC(=N)N)C(=O)N[C@@H](CC(N)=O)C(=O)N[C@@H]([C@@H](C)O)C(=O)N[C@@H](C)C(=O)N[C@@H]([C@@H](C)O)C(=O)N1)[C@@H](C)O)C(=O)N[C@@H](CC(C)C)C(=O)N1CCC[C@H]1C(=O)N1CCC[C@H]1C(=O)N[C@H](C(=O)N[C@@H](CC(N)=O)C(=O)N[C@H](C(=O)NCC(=O)N[C@@H](CO)C(=O)N[C@@H](CC(N)=O)C(=O)N[C@H](C(=O)N1C[C@H](O)C[C@H]1C(N)=O)[C@@H](C)O)C(C)C)[C@@H](C)O [PD081] (H-RCNTATCATQRLADFLRHSSNNLK([AEEA-AEEA-γGlu-C20 diacid])PILPPTNVGSNT[Hyp]-NH2; disulfide 2-7) | 0.031 nM
CC[C@H](C)[C@H](NC(=O)[C@@H]1CCCN1C(=O)CNC(=O)[C@H](CCCCNC(=O)CC[C@H](NC(=O)CCCCCCCCCCCCCCCCCCC(=O)O)C(=O)O)NC(=O)[C@H](CC(N)=O)NC(=O)[C@H](CC(N)=O)NC(=O)[C@H](CO)NC(=O)[C@H](CO)NC(=O)[C@H](Cc1c[nH]cn1)NC(=O)[C@H](CCCNC(=N)N)NC(=O)[C@H](CC(C)C)NC(=O)[C@H](Cc1ccccc1)NC(=O)[C@H](CC(=O)O)NC(=O)[C@H](C)NC(=O)[C@H](CC(C)C)NC(=O)[C@H](CCCNC(=N)N)NC(=O)[C@H](CCC(N)=O)NC(=O)[C@@H](NC(=O)[C@H](C)NC(=O)[C@@H]1CSSC[C@H](NC(=O)[C@@H](N)CCCNC(=N)N)C(=O)N[C@@H](CC(N)=O)C(=O)N[C@@H]([C@@H](C)O)C(=O)N[C@@H](C)C(=O)N[C@@H]([C@@H](C)O)C(=O)N1)[C@@H](C)O)C(=O)N[C@@H](CC(C)C)C(=O)N1CCC[C@H]1C(=O)N1CCC[C@H]1C(=O)N[C@H](C(=O)N[C@@H](CC(N)=O)C(=O)N[C@H](C(=O)NCC(=O)N[C@@H](CO)C(=O)N[C@@H](CC(N)=O)C(=O)N[C@H](C(=O)N1C[C@H](O)C[C@H]1C(N)=O)[C@@H](C)O)C(C)C)[C@@H](C)O [PD082] (H-RCNTATCATQRLADFLRHSSNNK([γGlu-C20 diacid])GPILPPTNVGSNT[Hyp]-NH2; disulfide 2-7) | 0.038 nM

The next lines start with the values.

EC50 | Compound
0.04 nM | CC[C@H](C)[C@H](NC(=O)[C@@H]1CCCN1C(=O)[C@H](CCCCNC(=O)CC[C@H](NC(=O)CCCCCCCCCCCCCCCCCCC(=O)O)C(=O)O)NC(=O)[C@H](CC(C)C)NC(=O)[C@H](CC(N)=O)NC(=O)[C@H](CC(N)=O)NC(=O)[C@H](CO)NC(=O)[C@H](CO)NC(=O)[C@H](Cc1c[nH]cn1)NC(=O)[C@H](CCCNC(=N)N)NC(=O)[C@H](CC(C)C)NC(=O)[C@H](Cc1ccccc1)NC(=O)[C@H](CC(=O)O)NC(=O)[C@H](C)NC(=O)[C@H](CC(C)C)NC(=O)[C@H](CCCNC(=N)N)NC(=O)[C@H](CCC(N)=O)NC(=O)[C@@H](NC(=O)[C@H](C)NC(=O)[C@@H]1CSSC[C@H](NC(=O)[C@@H](N)CCCCN)C(=O)N[C@@H](CC(N)=O)C(=O)N[C@@H]([C@@H](C)O)C(=O)N[C@@H](C)C(=O)N[C@@H]([C@@H](C)O)C(=O)N1)[C@@H](C)O)C(=O)N[C@@H](CC(C)C)C(=O)N1CCC[C@H]1C(=O)N1CCC[C@H]1C(=O)N[C@H](C(=O)N[C@@H](CC(N)=O)C(=O)N[C@H](C(=O)NCC(=O)N[C@@H](CO)C(=O)N[C@@H](CC(N)=O)C(=O)N[C@H](C(=O)N1C[C@H](O)C[C@H]1C(N)=O)[C@@H](C)O)C(C)C)[C@@H](C)O [PD076] (H-KCNTATCATQRLADFLRHSSNNLK([γGlu-C20 diacid])PILPPTNVGSNT[Hyp]-NH2; disulfide 2-7)
0.131 nM | CC[C@H](C)[C@H](NC(=O)[C@@H]1CCCN1C(=O)[C@H](CCCCNC(=O)CC[C@H](NC(=O)CCCCCCCCCCCCCCCCCCC(=O)O)C(=O)O)NC(=O)[C@H](CC(C)C)NC(=O)[C@H](CC(N)=O)NC(=O)[C@H](CC(N)=O)NC(=O)[C@H](CO)NC(=O)[C@H](CO)NC(=O)[C@H](Cc1c[nH]cn1)NC(=O)[C@H](CCCNC(=N)N)NC(=O)[C@H](CC(C)C)NC(=O)[C@H](Cc1ccccc1)NC(=O)[C@H](CC(=O)O)NC(=O)[C@H](C)NC(=O)[C@H](CC(C)C)NC(=O)[C@H](CCCNC(=N)N)NC(=O)[C@H](CCC(N)=O)NC(=O)[C@@H](NC(=O)[C@H](C)NC(=O)[C@@H]1CSSC[C@H](NC(=O)[C@@H](N)CC(=O)O)C(=O)N[C@@H](CC(N)=O)C(=O)N[C@@H]([C@@H](C)O)C(=O)N[C@@H](C)C(=O)N[C@@H]([C@@H](C)O)C(=O)N1)[C@@H](C)O)C(=O)N[C@@H](CC(C)C)C(=O)N1CCC[C@H]1C(=O)N1CCC[C@H]1C(=O)N[C@H](C(=O)N[C@@H](CC(N)=O)C(=O)N[C@H](C(=O)NCC(=O)N[C@@H](CO)C(=O)N[C@@H](CC(N)=O)C(=O)N[C@H](C(=O)N1C[C@H](O)C[C@H]1C(N)=O)[C@@H](C)O)C(C)C)[C@@H](C)O [PD079] (H-DCNTATCATQRLADFLRHSSNNLK([γGlu-C20 diacid])PILPPTNVGSNT[Hyp]-NH2; disulfide 2-7)
0.11 nM | CC[C@H](C)[C@H](NC(=O)[C@@H]1CCCN1C(=O)[C@H](CCCCNC(=O)CC[C@H](NC(=O)CCCCCCCCCCCCCCCCCCC(=O)O)C(=O)O)NC(=O)[C@H](CC(C)C)NC(=O)[C@H](CC(N)=O)NC(=O)[C@H](CC(N)=O)NC(=O)[C@H](CO)NC(=O)[C@H](CO)NC(=O)[C@H](Cc1c[nH]cn1)NC(=O)[C@H](CCCNC(=N)N)NC(=O)[C@H](CC(C)C)NC(=O)[C@H](Cc1ccccc1)NC(=O)[C@H](CC(=O)O)NC(=O)[C@H](C)NC(=O)[C@H](CC(C)C)NC(=O)[C@H](CCCNC(=N)N)NC(=O)[C@H](CCC(N)=O)NC(=O)[C@@H](NC(=O)[C@H](C)NC(=O)[C@@H]1CSSC[C@H](NC(=O)[C@@H](N)CCC(=O)O)C(=O)N[C@@H](CC(N)=O)C(=O)N[C@@H]([C@@H](C)O)C(=O)N[C@@H](C)C(=O)N[C@@H]([C@@H](C)O)C(=O)N1)[C@@H](C)O)C(=O)N[C@@H](CC(C)C)C(=O)N1CCC[C@H]1C(=O)N1CCC[C@H]1C(=O)N[C@H](C(=O)N[C@@H](CC(N)=O)C(=O)N[C@H](C(=O)NCC(=O)N[C@@H](CO)C(=O)N[C@@H](CC(N)=O)C(=O)N[C@H](C(=O)N1C[C@H](O)C[C@H]1C(N)=O)[C@@H](C)O)C(C)C)[C@@H](C)O [PD080] (H-ECNTATCATQRLADFLRHSSNNLK([γGlu-C20 diacid])PILPPTNVGSNT[Hyp]-NH2; disulfide 2-7)
